≈ marks a conversion by molar mass, not a printed value.
Legend:
[1] = in vitro; settings: rat, microsomes
[2] = in vitro; settings: human, microsomes
[3] = physchem; settings: buffer
[4] = in vivo; settings: Wistar, rat, iv, 1 mg/kg
[5] = in vivo; settings: Wistar, rat, 1 mg/kg
[6] = in vivo; settings: Wistar, rat, po, 1 mg/kg

| Compound | remaining at 1 h [1] [%] | remaining at 1 h [2] [%] | solubility [3] [µM] | clearance [4] [mL/min/kg] | half-life [5] [min] | bioavailability [6] [%] |
| --- | --- | --- | --- | --- | --- | --- |
| C[C@@H]1CC[C@H](C)N1C(=O)c1ccc([C@@H](C)NC(=O)C2(NC(=O)c3cc(F)cc(C(F)(F)F)c3)CC2)c(F)c1 | 45 | 9 | 42 (≈ 22.6 µg/mL) |  |  |  |
| CCN(NC(=O)C(F)(F)F)C(=O)N[C@H](C)c1ncc(-c2cc(Cl)cc(Cl)c2OCC(F)F)cc1F |  |  |  | 7 | 135 | > 44 |

Source: ChEMBL document CHEMBL1157727, “Novel small molecule bradykinin B1 receptor antagonists. Part 1: benzamides and semicarbazides” (Bioorg Med Chem Lett, 2010)
